Experimental data from patent publication US20250145633A1, “SUBSTITUTED FURANOPYRIMIDINE COMPOUNDS AS PDE1 INHIBITORS” (Dart NeuroScience, LLC, priority 2017, published 2025).

Molecular target: human PDE1B enzyme (Homo sapiens (Human), UniProt Q01064)
Experiment: IMAP TR-FRET PDE1B enzymatic assay
Assay type: biochemical
Settings: negative log of half-maximal molar inhibitory concentration, 200 nM FAM-cAMP, values given as bins; for IC50: read-out: PDE1b (pIC50) (converted)
Procedure, shortened: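 Full-length GST-tagged human PDE1B (250 pg/well) in IMAP BSA buffer with 10 U/ml calmodulin and 2.5 mM CaCl2; compound pre-incubated 5 min at room temperature, then 200 nM (final) FAM-cAMP for 30 min. IMAP binding reagent/Tb added, 1 h; TR-FRET 520/490 ratio read. IC50 from sigmoidal dose-response fit.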

Row | SMILES | IC50 [nM] | PDE1b (pIC50)
1 | Cc1oc2ncnc(NC3(C)CC3)c2c1C(=O)N1CC[C@@H]2OCC[C@@H]21 [Example 155, 5-[(3aS,6aS)-Hexahydro-2H-furo[3,2-b]pyrrole-4-carbonyl]-6-methyl-N-(1-methylcyclopropyl)furo[2,3-d]pyrimidin-4-amine] | 10 to 100 | 
2 | Cc1oc2ncnc(NC3(C)CC3)c2c1C(=O)N1CCCN(c2ccccc2F)CC1 [Example 156, 5-[4-(2-Fluorophenyl)-1,4-diazepane-1-carbonyl]-6-methyl-N-(1-methylcyclopropyl)furo[2,3-d]pyrimidin-4-amine] | 10 to 100 | 
3 | Cc1oc2ncnc(NC3(C)CC3)c2c1C(=O)N1CCCN(c2ccccc2)CC1 [Example 157, 6-Methyl-N-(1-methylcyclopropyl)-5-(4-phenyl-1,4-diazepane-1-carbonyl)furo[2,3-d]pyrimidin-4-amine] | 100 to 1000 | 
4 | Cc1oc2ncnc(NC3(C)CC3)c2c1C(=O)N1CCCN(c2ccccn2)CC1 [Example 158, 6-Methyl-N-(1-methylcyclopropyl)-5-[4-(pyridin-2-yl)-1,4-diazepane-1-carbonyl]furo[2,3-d]pyrimidin-4-amine] | 100 to 1000 | 
5 | COc1ccc(N2CCCN(C(=O)c3c(C)oc4ncnc(NC5(C)CC5)c34)CC2)cc1 [Example 159, 5-[4-(4-Methoxyphenyl)-1,4-diazepane-1-carbonyl]-6-methyl-N-(1-methylcyclopropyl)furo[2,3-d]pyrimidin-4-amine] | 100 to 1000 | 
6 | Cc1oc2ncnc(NC3(C)CC3)c2c1C(=O)N1CCN(c2ccnc(F)c2)CC1 [Example 160, 5-[4-(2-fluoropyridin-4-yl)piperazine-1-carbonyl]-6-methyl-N-(1-methylcyclopropyl)furo[2,3-d]pyrimidin-4-amine] | 10 to 100 | 
7 | Cc1oc2ncnc(NC3(C)CC3)c2c1C(=O)N1CCN(c2cc(F)ncn2)CC1 [Example 161, 5-[4-(6-Fluoropyrimidin-4-yl)piperazine-1-carbonyl]-6-methyl-N-(1-methylcyclopropyl)furo[2,3-d]pyrimidin-4-amine] | 10 to 100 | 
8 | Cc1oc2ncnc(NC3(C)CC3)c2c1C(=O)N1CCN(c2ccnc(F)n2)CC1 [Example 162, 5-[4-(2-Fluoropyrimidin-4-yl)piperazine-1-carbonyl]-6-methyl-N-(1-methylcyclopropyl)furo[2,3-d]pyrimidin-4-amine] | 10 to 100 | 
9 | Cc1oc2ncnc(NC3(C)CC3)c2c1C(=O)NCc1ccncc1F [Example 163, N-[(3-Fluoropyridin-4-yl)methyl]-6-methyl-4-[(1-methylcyclopropyl)amino]furo[2,3-d]pyrimidine-5-carboxamide] | 10 to 100 | 
10 | Cc1oc2ncnc(NC3(C)CC3)c2c1C(=O)NCc1ccnc(F)c1 [Example 164, N-[(2-Fluoropyridin-4-yl)methyl]-6-methyl-4-[(1-methylcyclopropyl)amino]furo[2,3-d]pyrimidine-5-carboxamide] | 10 to 100 | 
11 | Cc1oc2ncnc(NC3(C)CC3)c2c1C(=O)NC1CCCC1 [Example 165, N-Cyclopentyl-6-methyl-4-[(1-methylcyclopropyl)amino]furo[2,3-d]pyrimidine-5-carboxamide] | 10 to 100 | 
12 | CCCCCNC(=O)c1c(C)oc2ncnc(NC3(C)CC3)c12 [Example 167, 6-Methyl-4-[(1-methylcyclopropyl)amino]-N-pentylfuro[2,3-d]pyrimidine-5-carboxamide] | 10 to 100 | 
13 | Cc1oc2ncnc(NC3(C)CC3)c2c1C(=O)NCCC(C)C [Example 168, 6-Methyl-N-(3-methylbutyl)-4-[(1-methylcyclopropyl)amino]furo[2,3-d]pyrimidine-5-carboxamide] | 10 to 100 | 
14 | CCC(CC)NC(=O)c1c(C)oc2ncnc(NC3(C)CC3)c12 [Example 169, 6-Methyl-4-[(1-methylcyclopropyl)amino]-N-(pentan-3-yl)furo[2,3-d]pyrimidine-5-carboxamide] | 10 to 100 | 
15 | Cc1oc2ncnc(NC3(C)CC3)c2c1C(=O)NC(C)C(C)C (stereo not shown) [Example 170, 6-Methyl-N-(3-methylbutan-2-yl)-4-[(1-methylcyclopropyl)amino]furo[2,3-d]pyrimidine-5-carboxamide] | 10 to 100 | 
16 | CCOCCNC(=O)c1c(C)oc2ncnc(NC3(C)CC3)c12 [Example 171, N-(2-Rthoxyethyl)-6-methyl-4-[(1-methylcyclopropyl)amino]furo[2,3-d]pyrimidine-5-carboxamide] | 100 to 1000 | 
17 | Cc1oc2ncnc(NC3(C)CC3)c2c1C(=O)Nc1ccnn1C [Example 174, 6-Methyl-N-(1-methyl-1H-pyrazol-5-yl)-4-[(1-methylcyclopropyl)amino]furo[2,3-d]pyrimidine-5-carboxamide] | 100 to 1000 | 
18 | Cc1oc2ncnc(NC3(C)CC3)c2c1C(=O)NCC1CCCO1 (stereo not shown) [Example 175, 6-Methyl-4-[(1-methylcyclopropyl)amino]-N-(oxolan-2-ylmethyl)furo[2,3-d]pyrimidine-5-carboxamide] | 10 to 100 | 
19 | Cc1oc2ncnc(NC3(C)CC3)c2c1C(=O)NCCOC(C)C [Example 176, 6-Methyl-4-[(1-methylcyclopropyl)amino]-N-[2-(propan-2-yloxy)ethyl]furo[2,3-d]pyrimidine-5-carboxamide] | 10 to 100 | 

Row | SMILES | IC50 [nM] | PDE1b (pIC50)
20 | Cc1oc2ncnc(NC3(C)CC3)c2c1C(=O)NCc1ccccc1 [Example 177, N-Benzyl-6-methyl-4-[(1-methylcyclopropyl)amino]furo[2,3-d]pyrimidine-5-carboxamide] | 10 to 100 | 
21 | Cc1ccccc1NC(=O)c1c(C)oc2ncnc(NC3(C)CC3)c12 [Example 178, 6-Methyl-4-[(1-methylcyclopropyl)amino]-N-(2-methylphenyl)furo[2,3-d]pyrimidine-5-carboxamide] | 10 to 100 | 
22 | Cc1cccc(NC(=O)c2c(C)oc3ncnc(NC4(C)CC4)c23)c1 [Example 180, 6-Methyl-4-[(1-methylcyclopropyl)amino]-N-(3-methylphenyl)furo[2,3-d]pyrimidine-5-carboxamide] | 10 to 100 | 
23 | Cc1ncccc1NC(=O)c1c(C)oc2ncnc(NC3(C)CC3)c12 [Example 181, 6-Methyl-4-[(1-methylcyclopropyl)amino]-N-(2-methylpyridin-3-yl)furo[2,3-d]pyrimidine-5-carboxamide] | 10 to 100 | 
24 | Cc1oc2ncnc(NC3(C)CC3)c2c1C(=O)NCc1ccc(N2CCOCC2)cc1 [Example 184, 6-Methyl-4-[(1-methylcyclopropyl)amino]-N-{[4-(morpholin-4-yl)phenyl]methyl}furo[2,3-d]pyrimidine-5-carboxamide] | 10 to 100 | 
25 | COc1ccc(CNC(=O)c2c(C)oc3ncnc(NC4(C)CC4)c23)c(F)c1F [Example 185, N-[(2,3-Difluoro-4-methoxyphenyl)methyl]-6-methyl-4-[(1-methylcyclopropyl)amino]furo[2,3-d]pyrimidine-5-carboxamide] |  | >8
26 | COc1ccc(N2CCN(C(=O)c3c(C)oc4ncnc(NC5(C)CC5)c34)CC2)cc1 [Example 186, 5-[4-(4-Methoxyphenyl)piperazine-1-carbonyl]-6-methyl-N-(1-methylcyclopropyl)furo[2,3-d]pyrimidin-4-amine] | 10 to 100 | 
27 | Cc1oc2ncnc(NC3(C)CC3)c2c1C(=O)NCCc1ccco1 [Example 188, N-[2-(Furan-2-yl)ethyl]-6-methyl-4-[(1-methylcyclopropyl)amino]furo[2,3-d]pyrimidine-5-carboxamide] | 10 to 100 | 
28 | Cc1oc2ncnc(NC3(C)CC3)c2c1C(=O)NCCn1ccnc1 [Example 189, N-[2-(1H-Imidazol-1-yl)ethyl]-6-methyl-4-[(1-methylcyclopropyl)amino]furo[2,3-d]pyrimidine-5-carboxamide] | 100 to 1000 | 
29 | Cc1oc2ncnc(NC3(C)CC3)c2c1C(=O)NCc1cccs1 [Example 190, 6-Methyl-4-[(1-methylcyclopropyl)amino]-N-(thiophen-2-ylmethyl)furo[2,3-d]pyrimidine-5-carboxamide] | 10 to 100 | 
30 | Cc1oc2ncnc(NC3(C)CC3)c2c1C(=O)NCc1ccsc1 [Example 191, 6-Methyl-4-[(1-methylcyclopropyl)amino]-N-(thiophen-3-ylmethyl)furo[2,3-d]pyrimidine-5-carboxamide] | 10 to 100 | 
31 | Cc1oc2ncnc(NC3(C)CC3)c2c1C(=O)NCC1CCCCC1 [Example 192, N-(Cyclohexylmethyl)-6-methyl-4-[(1-methylcyclopropyl)amino]furo[2,3-d]pyrimidine-5-carboxamide] | 10 to 100 | 
32 | Cc1oc2ncnc(NC3(C)CC3)c2c1C(=O)NC1CCN(C)CC1 [Example 193, 6-Methyl-4-[(1-methylcyclopropyl)amino]-N-(1-methylpiperidin-4-yl)furo[2,3-d]pyrimidine-5-carboxamide] |  | <6
33 | Cc1oc2ncnc(NC3(C)CC3)c2c1C(=O)NC(C)c1ccccc1 (stereo not shown) [Example 194, 6-Methyl-4-[(1-methylcyclopropyl)amino]-N-(1-phenylethyl)furo[2,3-d]pyrimidine-5-carboxamide] |  | >8
34 | Cc1oc2ncnc(NC3(C)CC3)c2c1C(=O)NCCc1ccccc1 [Example 195, 6-Methyl-4-[(1-methylcyclopropyl)amino]-N-(2-phenylethyl)furo[2,3-d]pyrimidine-5-carboxamide] | 10 to 100 | 
35 | Cc1ccc(CNC(=O)c2c(C)oc3ncnc(NC4(C)CC4)c23)cc1 [Example 196, 6-Methyl-4-[(1-methylcyclopropyl)amino]-N-[(4-methylphenyl)methyl]furo[2,3-d]pyrimidine-5-carboxamide] |  | >8
36 | Cc1cccc(CNC(=O)c2c(C)oc3ncnc(NC4(C)CC4)c23)c1 [Example 198, 6-Methyl-4-[(1-methylcyclopropyl)amino]-N-[(3-methylphenyl)methyl]furo[2,3-d]pyrimidine-5-carboxamide] | 10 to 100 | 
37 | COc1cccc(CN(C)C(=O)c2c(C)oc3ncnc(NC4(C)CC4)c23)c1 [Example 203, N-[(3-Methoxyphenyl)methyl]-N,6-dimethyl-4-[(1-methylcyclopropyl)amino]furo[2,3-d]pyrimidine-5-carboxamide] | 10 to 100 | 
